How the values were obtained:
[1] = tested on: Leukocyte adhesion to the endothelial cells in the post-capillary venules; test: In vivo inhibition of leukocyte adhesion (ischaemia/reperfusion, hamster cheek pouch); set-up: species or system hamsters; conditions: 3 mg/kg oral single dose, n=3
Experimental: Three groups of 3 hamsters, weighing from 90 to 110 g, are used in this study. Thirty minutes before anaesthesia, the hamsters are treated orally with a single dose of placebo (gum arabic 10%), of compound of Example 1 (3 mg/kg) or of reference compound (3 mg/kg). The animals are anaesthetised with pentobarbital 50 mg/kg by intraperitoneal administration. The hamsters are placed under a microscope and the cheek pouch is isolated and immersed in a perfusion solution (NaCl 110.0 mM, KCl 4.7 mM, CaCl2 2.0 mM, MgSO4 1.2 mM, NaHCO3 18.0 mM, Hepes 15.39 mM and Hepes Na^+-salt 14.61 mM), (Duling, The preparation and use of the hamster cheek pouch for studies of the microcirculation, 1973, Microvasc. Res. 5: 423-429; Svensjö et al., The hamster cheek pouch preparation as a model for studies of macromolecular permeability of the microvasculature, 1978, Uppsala J. Med. Sci. 83: 71-79).
Local ischaemia is brought about with the aid of a latex tube fitted at the entrance to the cheek pouch. The intratubular pressure of the tube is increased to 200-220 mm Hg with the aid of a calibrated syringe. This total occlusion is carried out for 30 minutes and then reperfusion is performed for 45 minutes. Leukocyte adhesion to the endothelial cells in the post-capillary venules is quantified in a field of 6 mm^2 immediately after the […] (defined as 100%) and then at different times after reperfusion (0, 15, 30 and 45 minutes).

washed platelets = test: In vitro inhibition of platelet aggregation (collagen-induced, washed platelets, turbidimetry); conditions: Oryctolagus cuniculus, read-out: percentage inhibition of platelet aggregation
Experimental: The platelet-rich plasma is obtained by centrifugation. The platelets are then washed by centrifugation.
The washed platelets are resuspended in a Tyrode buffer. […] After 2 minutes, aggregation is brought about using collagen (4 μg/ml); the response is then recorded for 6 minutes. Platelet aggregation is quantified by means of turbidimetry, that is to say the percentage light that is transmitted through the platelet suspension with respect to a cell containing Tyrode and a cell containing the solvent (0.1% DMSO).

NADPH oxidase = test: In vitro inhibition of the activity of NADPH oxidase in HUVEC (angiotensin II, lucigenin luminescence); type: cell-based, human; conditions: 100 μM compound, angiotensin II 1 μM induction, control = 100%, n=3
Experimental: The study is carried out on human endothelial cells HUVEC (Human Umbilical Vein Endothelial Cells, Clonetics Co). The cells are cultured in an EBM2 medium (Endothelial Basal Medium, Clonetics Co) supplemented with 2% FCS (Fœtal Calf Serum) and EGM2 (Endothelial Growth Medium, Clonetics Co).
The cells are incubated in the presence of solvent (0.1% DMSO, compound of Example 1 control), EBM2 (compound of Example 2 control and compound of Example 3 control), compound of Example 1 (100 μM), compound of Example 2 (100 μM) or compound of Example 3 (100 μM) for 15 minutes and then activated using angiotensin II (1 μM) for 30 minutes in order to activate the NADPH oxidase. The cells are washed with EBM2, and then the NADPH oxidase substrate (NADPH, 200 μM) and lucigenin (25 μM) are added. The reduction in lucigenin by the superoxide anions produced by the NADPH oxidase is quantified using a luminometer. The number of counts per second (cps) of the control groups is compared to the treatment groups. The cps obtained with the control groups are considered as 100% NADPH oxidase activity.
The activity of the compounds of Examples 1, 2 and 3 is evaluated as a function of the number of cps obtained, that activity being greater the lower the number of cps.

C=C(C)Cc1c(-c2cc(=O)c3c(O)c(CC(=C)C)c(O)c(CC(=C)C)c3o2)ccc(OC)c1O [Example 1, 6,8,2′-Tris(isobut-2-en-1-yl)diosmetin]
number of leukocytes adhering to endothelial cells in post-capillary venules (number after ischaemia = 100%) ([1]; 0 minutes after reperfusion): 81.7 ± 19.1%
number of leukocytes adhering to endothelial cells in post-capillary venules (number after ischaemia = 100%) ([1]; 15 minutes after reperfusion): 100 ± 13.7%
number of leukocytes adhering to endothelial cells in post-capillary venules (number after ischaemia = 100%) ([1]; 30 minutes after reperfusion): 91.0 ± 18.7%
number of leukocytes adhering to endothelial cells in post-capillary venules (number after ischaemia = 100%) ([1]; 45 minutes after reperfusion): 109.3 ± 23.0%
inhibition at 30 µM (washed platelets): 36.6 ± 9.9%
NADPH oxidase activity (%/control group) (NADPH oxidase): 38.16 ± 3.13%

C=C(C)Cc1c(-c2cc(=O)c3c(O)c(CC(=C)C)c(O[C@@H]4O[C@H](C(=O)O)[C@@H](O)[C@H](O)[C@H]4O)c(CC(=C)C)c3o2)ccc(OC)c1O [Example 2, (5-Hydroxy-2-[3-hydroxy-4-methoxy-2-(isobut-2-en-1-yl)phenyl]-6,8-bis(isobut-2-en-1-yl)-4-oxo-4H-chromen-7-yl)-beta-D-glucuronic acid]
NADPH oxidase activity (%/control group) (NADPH oxidase): 30.60 ± 4.83%

C=C(C)Cc1c(-c2cc(=O)c3c(O)c(CC(=C)C)c(O)c(CC(=C)C)c3o2)ccc(OC)c1O[C@@H]1O[C@H](C(=O)O)[C@@H](O)[C@H](O)[C@H]1O [Example 3, 3-[5,7-Dihydroxy-6,8-bis(isobut-2-en-1-yl)-4-oxo-4H-chromen-2-yl]-6-methoxy-2-(isobut-2-en-1-yl)phenyl-beta-D-glucuronic acid]
NADPH oxidase activity (%/control group) (NADPH oxidase): 18.45 ± 4.08%

Source: patent US8404742B2, “Diosmetin compounds, a process for their preparation and pharmaceutical compositions containing them” (Les Laboratories Server, priority 2008, dated 2013)
